Measured values from US9145415B2, “Nitrogen-containing heterocyclic compound or salt thereof” (FUJIFILM Corporation, priority 2012, dated 2015).
Like-named read-outs stand apart in the source and are kept apart here.

Assays:
[1] = target: T1, human FLT3 protein (FLT3 (WT)) (Homo sapiens, UniProt P36888); experiment: FLT3 inhibition test (FLT3 enzyme inhibition, time-resolved fluorescence of substrate peptide phosphorylation); assay type: biochemical; conditions: GST-fused human FLT3 (564 to 993 aa), ATP 50 μM; read-out: FLT3 (WT) enzyme inhibition activity
T1 construct: human FLT3 protein (intracellular region, 564 to 993 aa); GST; purchased Carna Biosciences; host or cells: baculovirus expression system
T1 sequence (P36888 564-993): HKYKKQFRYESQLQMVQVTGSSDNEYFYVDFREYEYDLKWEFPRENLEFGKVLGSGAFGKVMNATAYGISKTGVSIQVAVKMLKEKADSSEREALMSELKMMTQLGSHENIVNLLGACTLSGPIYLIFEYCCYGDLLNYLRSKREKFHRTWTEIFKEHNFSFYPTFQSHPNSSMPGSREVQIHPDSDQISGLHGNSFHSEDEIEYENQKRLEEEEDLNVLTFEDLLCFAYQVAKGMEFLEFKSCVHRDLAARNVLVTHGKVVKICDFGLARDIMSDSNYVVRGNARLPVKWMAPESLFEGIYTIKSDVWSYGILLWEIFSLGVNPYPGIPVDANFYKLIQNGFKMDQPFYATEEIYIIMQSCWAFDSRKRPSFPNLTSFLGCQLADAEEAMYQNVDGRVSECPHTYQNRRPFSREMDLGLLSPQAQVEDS
How it was run: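 Wild-type human FLT3 (1.2 μg) pre-incubated with compound 15 min at 25° C in 100 mM HEPES pH 7.5, 10 mM MgCl2, 25 mM NaCl, 1 mM DTT. Reaction started with substrate peptide and ATP (final 50 μM), run 30 min at 25° C; phosphorylation read by time-resolved fluorescence.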

[2] = system: MV4-11 cells; experiment: Leukemia cell proliferation inhibition test (ATPlite), MV4-11; assay type: cell-based; conditions: MV4-11, 72 hours culture, ATPlite, GI50 per method, read-out: MV4-11 cell proliferation inhibition effect
How it was run: (§1)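 Molm-13 or MV4-11 cells at 10,000 cells/well in RPMI with 10% FBS and pen/strep were exposed to serially diluted compound for 72 h at 37 °C, 5% CO2. Total cellular ATP was read by luciferase luminescence. GI50 was taken relative to 0.1% DMSO control, from duplicates by sigmoid non-linear regression.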

[3] = system: Molm-13 cells; experiment: Leukemia cell proliferation inhibition test (ATPlite), Molm-13; assay type: cell-based; conditions: Molm-13, 72 hours culture, ATPlite, GI50 per method, read-out: MOLM13 cell proliferation inhibition effect
How it was run: as §1

Compound | IC50 [1] [µM] | IC50 ([2]; Homo sapiens, MV4-11, 72 h) [µM] | IC50 ([3]; Homo sapiens, MOLM-13, 72 h) [µM] | IC50 [2] [µM] | IC50 [3] [µM]
CCCNc1nc(Nc2cccc(F)c2)ncc1C#CCCCNC(=O)CN(C)C(=O)/C=C/CN(C)C [Compound 7-24, (E)-4-(Dimethylamino)-N-(2-((5-(2-((3-fluorophenyl)amino)-4-(propylamino)pyrimidin-5-yl)-4-pentyn-1-yl)amino)-2-oxoethyl)-N-methyl-2-butenamide] | < 0.01 | < 0.01 | < 0.01 | – | –
CCCNc1nc(Nc2cccc(F)c2)ncc1C#Cc1ccccc1CNC(=O)[C@H](C)N(C)C(=O)/C=C/CN(C)C [Compound 7-25] | < 0.01 | < 0.01 | 0.01 to 0.1 | – | –
CCCNc1nc(Nc2cccc(F)c2)ncc1/C=C/c1cccc(NC(=O)[C@H](C)N(C)C(=O)/C=C/CN(C)C)c1 [Compound 7-27] | < 0.01 | 0.01 to 0.1 | < 0.01 | – | –
CCCNc1nc(Nc2cccc(F)c2)ncc1C#CC(C)(C)CCNC(=O)[C@H](C)N(C)C(=O)/C=C/CN(C)C [Compound 7-28] | < 0.01 | < 0.01 | < 0.01 | – | –
CCCNc1nc(Nc2ccc(C(N)=O)cc2)ncc1CCCCCNC(=O)CNC(=O)/C=C/CN(C)C [Compound 7-29] | < 0.01 | 0.01 to 0.1 | 0.1 to 1 | – | –
C[C@@H](C(=O)NCCCC#Cc1cnc(Nc2cccc(F)c2)nc1NCCCF)N(C)C(=O)/C=C/CN(C)C [Compound 7-31] | < 0.01 | < 0.01 | < 0.01 | – | –
CCCNc1nc(Nc2ccc(C#N)cc2)ncc1C#CCCCNC(=O)[C@@H]1CCCN1C(=O)/C=C/CN(C)C [Compound 7-33, (S,E)-N-(5-(2-((4-Cyanophenyl)amino)-4-(propylamino)pyrimidin-5-yl)-4-pentyn-1-yl)-1-(4-(dimethylamino)-2-butenoyl)pyrrolidine-2-carboxamide] | < 0.01 | < 0.01 | < 0.01 | – | –
CCCNc1nc(Nc2ccc(C#N)cc2)ncc1C#CCCCNC(=O)[C@H](CC)N(C)C(=O)/C=C/CN(C)C [Compound 7-34] | < 0.01 | < 0.01 | < 0.01 | – | –
C[C@@H](C(=O)N[C@H]1CCC[C@@H](C#Cc2cnc(Nc3ccc(C#N)cc3)nc2NC2CC2)C1)N(C)C(=O)/C=C/CN(C)C [Compound 7-35] | < 0.01 | < 0.01 | < 0.01 | – | –
CCCNc1nc(Nc2ccc(C#N)cc2)ncc1C#CCCCNC(=O)[C@H]1CCCN1C(=O)/C=C/CN(C)C [Compound 7-36] | < 0.01 | < 0.01 | 0.01 to 0.1 | – | –
CCCNc1nc(Nc2ccc(C#N)cc2)ncc1C#CCCCNC(=O)[C@@H]1CCCCN1C(=O)/C=C/CN(C)C [Compound 7-37] | < 0.01 | < 0.01 | < 0.01 | – | –
CCCNc1nc(Nc2ccc(C#N)cc2)ncc1C#CCCCNC(=O)[C@H]1CCCCN1C(=O)/C=C/CN(C)C [Compound 7-38] | < 0.01 | 0.01 to 0.1 | 0.01 to 0.1 | – | –
CCCNc1nc(Nc2ccc(C#N)cc2)ncc1C#CCCCNC(=O)CN(CC)C(=O)/C=C/CN(C)C [Compound 7-39] | < 0.01 | < 0.01 | < 0.01 | – | –
CCCNc1nc(Nc2ccc(C#N)cc2)ncc1C#CCCCNC(=O)CN(C(=O)/C=C/CN(C)C)C(C)C [Compound 7-40] | < 0.01 | < 0.01 | < 0.01 | – | –
CCCNc1nc(Nc2ccc(F)c(F)c2)ncc1C#CCCCNC(=O)[C@H](C)N(C)C(=O)/C=C/CN(C)C [Compound 7-41] | < 0.01 | < 0.01 | < 0.01 | – | –
COc1ccc(Nc2ncc(C#CCCCNC(=O)[C@H](C)N(C)C(=O)/C=C/CN(C)C)c(NC3CC3)n2)cc1F [Compound 7-42, (S,E)-N-(1-((5-(4-(Cyclopropylamino)-2-((3-fluoro-4-methoxyphenyl)amino)pyrimidin-5-yl)-4-pentyn-1-yl)amino)-1-oxopropan-2-yl)-4-(dimethylamino)-N-methyl-2-butenamide] | < 0.01 | < 0.01 | < 0.01 | – | –
CCCNc1nc(Nc2ccc(C#N)cc2)ncc1C#CCCCNC(=O)CN(Cc1ccccc1)C(=O)/C=C/CN(C)C [Compound 7-43] | < 0.01 | < 0.01 | < 0.01 | – | –
CCCNc1nc(Nc2ccc(C#N)cc2)ncc1C#CCCCNC(=O)[C@H](COC)NC(=O)/C=C/CN(C)C [Compound 7-44] | < 0.01 | < 0.01 | < 0.01 | – | –
CCCNc1nc(Nc2cccc(F)c2)ncc1C#CCCCNC(=O)[C@@H]1CCCN1C(=O)/C=C/CN(C)C [Compound 7-45] | < 0.01 | – | – | < 0.01 | < 0.01
CCCNc1nc(Nc2cccc(F)c2)ncc1C#CCCCNC(=O)[C@@H]1CCCCN1C(=O)/C=C/CN(C)C [Compound 7-46] | < 0.01 | < 0.01 | 0.01 to 0.1 | – | –
CCCNc1nc(Nc2cccc(F)c2)ncc1C#CCCCNC(=O)[C@@H]1C[C@@H](F)CN1C(=O)/C=C/CN(C)C [Compound 7-47] | < 0.01 | < 0.01 | < 0.01 | – | –
CCCNc1nc(Nc2ccc(C#N)cc2)ncc1C#CCCCNC(=O)[C@@H]1C[C@@H](F)CN1C(=O)/C=C/CN(C)C [Compound 7-48] | < 0.01 | < 0.01 | < 0.01 | – | –
CCCNc1nc(Nc2cccc(F)c2)ncc1C#CCCCNC(=O)[C@@H]1C[C@H](F)CN1C(=O)/C=C/CN(C)C [Compound 7-49] | < 0.01 | < 0.01 | < 0.01 | – | –
CCCNc1nc(Nc2ccc(C#N)cc2)ncc1C#CCCCNC(=O)[C@@H]1C[C@H](F)CN1C(=O)/C=C/CN(C)C [Compound 7-50] | < 0.01 | < 0.01 | < 0.01 | – | –
CCCNc1nc(Nc2cccc(F)c2)ncc1C#CCCCNC(=O)[C@@H]1CCN1C(=O)/C=C/CN(C)C [Compound 7-51] | < 0.01 | < 0.01 | < 0.01 | – | –
CCCNc1nc(Nc2ccc(C#N)cc2)ncc1C#CCCCNC(=O)[C@@H]1CCN1C(=O)/C=C/CN(C)C [Compound 7-52] | < 0.01 | < 0.01 | < 0.01 | – | –
CCCNc1nc(Nc2cccc(F)c2)ncc1C#CCCCNC(=O)[C@@H]1CC(F)(F)CN1C(=O)/C=C/CN(C)C [Compound 7-53] | 0.01 to 0.1 | < 0.01 | < 0.01 | – | –
CCCNc1nc(Nc2ccc(C#N)cc2)ncc1C#CCCCNC(=O)[C@@H]1CC(F)(F)CN1C(=O)/C=C/CN(C)C [Compound 7-54] | 0.01 to 0.1 | < 0.01 | < 0.01 | – | –
CCCNc1nc(Nc2ccc(C#N)cc2)ncc1C#CCCCNC(=O)[C@H](COC)N(C)C(=O)/C=C/CN(C)C [Compound 7-55] | < 0.01 | < 0.01 | < 0.01 | – | –
COc1ccc(Nc2ncc(C#CCCCNC(=O)[C@H](C)N(C)C(=O)/C=C/CN(C)C)c(NCCCF)n2)cc1F [Compound 7-56, (S,E)-4-(Dimethylamino)-N-(1-((5-(2-((3-fluoro-4-methoxyphenyl)amino)-4-((3-fluoropropyl)amino)pyrimidin-5-yl)-4-pentyn-1-yl)amino)-1-oxopropan-2-yl)-N-methyl-2-butenamide] | < 0.01 | < 0.01 | < 0.01 | – | –
